As usually defined, the IC50 is the midpoint of a concentration-inhibition curve. Higher therefore signals weaker potency.

The subject of this experiment is Endogenous Huntingtin Protein (capture with MW1 (expanded polyglutamine) or MAB2166 antibody). The experiment is described as follows: Endogenous Huntingtin Protein Assay (ELISA-based Meso Scale Discovery electrochemiluminescence assay). The following applies: MSD electrochemiluminescence platform. Format: cell-based. The procedure, abridged: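 MSD electrochemiluminescence sandwich immunoassay: plates coated with 1 μg/mL MW1 or MAB2166 capture antibody, samples incubated overnight at 4 °C. Detection with rabbit monoclonal #5656S then SULFO-TAG anti-rabbit (each 0.25 μg/mL, 1 h RT).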
In general terms: ELISA stands for enzyme-linked immunosorbent assay.
As to `[2H]C([2H])([2H])Oc1cc(-c2cnc(-c3ccc(N[C@@H]4CC(C)(C)NC(C)(C)[C@@H]4F)nn3)c(O)c2)ncn1` [Compound 25, 2-(6-{[(3R,4R)-3-fluoro-2,2,6,6-tetramethylpiperidin-4-yl]amino}pyridazin-3-yl)-5-{6-[(^2H3)methyloxy]pyrimidin-4-yl}pyridin-3-ol], the IC50 is not above 0.1 µM.

For `CC1(C)CC(Oc2ccc(-c3ncc(-c4cn[nH]c4F)cc3O)nn2)CC2(CC2)N1` (stereo not shown) [Compound 26, 2-{6-[(5,5-dimethyl-4-azaspiro[2.5]octan-7-yl)oxy]pyridazin-3-yl}-5-(5-fluoro-1H-pyrazol-4-yl)pyridin-3-ol], the 50% inhibitory concentration (IC50) is not above 0.1 µM.

On to `CC1(C)CC(Oc2ccc(-c3ncc(-c4cn[nH]c4)cc3O)nn2)CC2(CC2)N1` (stereo not shown) [Compound 27, 2-{6-[(5,5-dimethyl-4-azaspiro[2.5]octan-7-yl)oxy]pyridazin-3-yl}-5-(1H-pyrazol-4-yl)pyridin-3-ol], for which the half-maximal inhibitory concentration (IC50) was not above 0.1 µM.

`CC1(C)CC(Oc2ccc(-c3ncc(-c4ncco4)cc3O)nn2)CC2(CC2)N1` (stereo not shown) [Compound 28, 2-{6-[(5,5-dimethyl-4-azaspiro[2.5]octan-7-yl)oxy]pyridazin-3-yl}-5-(1,3-oxazol-2-yl)pyridin-3-ol] came in with a concentration for half-maximal inhibition (IC50) not above 0.1 µM.

In the case of `[2H]C([2H])([2H])n1cc(-c2cnc(-c3ccc(N4CCC(NC(C)(C)C)C4)nn3)c(O)c2)cn1` (stereo not shown) [Compound 29, 2-{6-[3-(tert-butylamino)pyrrolidin-1-yl]pyridazin-3-yl}-5-[1-(^2H3)methyl-1H-pyrazol-4-yl]pyridin-3-ol], the IC50 was not above 0.1 µM.

The compound `COc1cc(-c2cnc(-c3ccc(N4CC[C@@H](NC(C)(C)C)C4)nn3)c(O)c2)ncn1` [Compound 30, 2-{6-[(3R)-3-(tert-butylamino)pyrrolidin-1-yl]pyridazin-3-yl}-5-(6-methoxypyrimidin-4-yl)pyridin-3-ol] yielded an IC50 not above 0.1 µM.

In turn, `Oc1cc(-c2cn[nH]c2)cnc1-c1ccc(OC2CC3(CC3)NC3(CC3)C2)nn1` (stereo not shown) [Compound 31, 2-{6-[(4-azadispiro[2.1.2^5.3^3]decan-9-yl)oxy]pyridazin-3-yl}-5-(1H-pyrazol-4-yl)pyridin-3-ol] yielded an IC50 of 0.1 to 0.5 µM.

The compound `C[C@]12CC[C@](C)(C[C@@H](Oc3ccc(-c4ncc(-n5nccn5)cc4O)nn3)C1)N2` [Compound 32, 2-(6-{[(1R,3s,5S)-1,5-dimethyl-8-azabicyclo[3.2.1]octan-3-yl]oxy}pyridazin-3-yl)-5-(2H-1,2,3-triazol-2-yl)pyridin-3-ol and 2-(6-{[(1S,3r,5R)-1,5-dimethyl-8-azabicyclo[3.2.1]octan-3-yl]oxy}pyridazin-3-yl)-5-(2H-1,2,3-triazol-2-yl)pyridin-3-ol] registered an IC50 not above 0.1 µM.

Consider `[2H]C([2H])([2H])n1cc(-c2cnc(-c3ccc(O[C@H]4C[C@]5(C)CC[C@](C)(C4)N5)nn3)c(O)c2)cn1` [Compound 33, 2-(6-{[(1R,3s,5S)-1,5-dimethyl-8-azabicyclo[3.2.1]octan-3-yl]oxy}pyridazin-3-yl)-5-[1-(^2H3)methyl-1H-pyrazol-4-yl]pyridin-3-ol and 2-(6-{[(1S,3r,5R)-1,5-dimethyl-8-azabicyclo[3.2.1]octan-3-yl]oxy}pyridazin-3-yl)-5-[1-(^2H3)methyl-1H-pyrazol-4-yl]pyridin-3-ol], for which the half-inhibitory concentration (IC50) was not above 0.1 µM.

As for `C[C@]12CC[C@](C)(C[C@@H](Oc3ccc(-c4ncc(-c5cncnc5)cc4O)nn3)C1)N2` [Compound 36, 2-(6-{[(1R,3s,5S)-1,5-dimethyl-8-azabicyclo[3.2.1]octan-3-yl]oxy}pyridazin-3-yl)-5-(pyrimidin-5-yl)pyridin-3-ol and 2-(6-{[(1S,3r,5R)-1,5-dimethyl-8-azabicyclo[3.2.1]octan-3-yl]oxy}pyridazin-3-yl)-5-(pyrimidin-5-yl)pyridin-3-ol], the IC50 was in the range of 0.5 to 1 µM.

For the compound `Cc1cn2nc(-c3cnc(-c4ccc(O[C@H]5CC(C)(C)NC(C)(C)[C@H]5F)nn4)c(O)c3)cc(C)c2n1` [Compound 38, 5-(2,8-dimethylimidazo[1,2-b]pyridazin-6-yl)-2-(6-{ [(3R,4S)-3-fluoro-2,2,6,6-tetramethylpiperidin-4-yl]oxy}pyridazin-3-yl)pyridin-3-ol or 5-(2,8-dimethylimidazo[1,2-b]pyridazin-6-yl)-2-(6-{ [(3S,4R)-3-fluoro-2,2,6,6-tetramethylpiperidin-4-yl]oxy}pyridazin-3-yl)pyridin-3-ol], the IC50 was not above 0.1 µM.

Compound `CC1(C)C[C@@H](Oc2ccc(-c3ncc(-c4cn[nH]c4F)cc3O)nn2)[C@@H](F)C(C)(C)N1` [Compound 40, 5-(5-fluoro-1H-pyrazol-4-yl)-2-(6-{[(3S,4R)-3-fluoro-2,2,6,6-tetramethylpiperidin-4-yl]oxy}pyridazin-3-yl)pyridin-3-ol] showed an IC50 not above 0.1 µM.

For the compound `Cc1cn2nc(-c3cnc(-c4ccc(OC5CC(C)(C)NC(C)(C)C5)nn4)c(O)c3)cc(C)c2n1` [Compound 50, 5-(2,8-dimethylimidazo[1,2-b]pyridazin-6-yl)-2-{6-[(2,2,6,6-tetramethylpiperidin-4-yl)oxy]pyridazin-3-yl}pyridin-3-ol], the IC50 was not above 0.1 µM.

As for `Cn1cc2cc(-c3cnc(-c4ccc(OC5CC(C)(C)NC(C)(C)C5)nn4)c(O)c3)cc(F)c2n1` [Compound 52, 5-(7-fluoro-2-methyl-2H-indazol-5-yl)-2-{6-[(2,2,6,6-tetramethylpiperidin-4-yl)oxy]pyridazin-3-yl}pyridin-3-ol], the IC50 is not above 0.1 µM.

Compound `[2H]C([2H])([2H])n1cc(-c2cnc(-c3ccc(N(C)C4CC(C)(C)NC5(CC5)C4)nn3)c(O)c2)cn1` (stereo not shown) [Compound 53, 2-{6-[(5,5-dimethyl-4-azaspiro[2.5]octan-7-yl)(methyl)amino]pyridazin-3-yl}-5-[1-(^2H3)methyl-1H-pyrazol-4-yl]pyridin-3-ol] had an IC50 not above 0.1 µM.

`CC1(C)CC(Oc2ccc(-c3ncc(-n4cncn4)cc3O)nn2)CC(C)(C)N1` [Compound 61, 2-{6-[(2,2,6,6-tetramethylpiperidin-4-yl)oxy]pyridazin-3-yl}-5-(1H-1,2,4-triazol-1-yl)pyridin-3-ol] registered a 50% inhibitory concentration (IC50) not above 0.1 µM.

For the compound `Cn1cc2cc(-c3cnc(-c4ccc(OC5CC(C)(C)NC(C)(C)C5)nn4)c(O)c3)cc(C#N)c2n1` [Compound 62, 5-[6-(6-{[2,2,6,6-tetramethylpiperidin-4-yl]oxy}pyridazin-3-yl)-5-hydroxypyridin-3-yl]-2-methyl-2H-indazole-7-carbonitrile], the IC50 is not above 0.1 µM.

As to `CC1(C)CC(Oc2ccc(-c3ncc(-n4ccnn4)cc3O)nn2)CC(C)(C)N1` [Compound 63, 2-{6-[(2,2,6,6-tetramethylpiperidin-4-yl)oxy]pyridazin-3-yl}-5-(1H-1,2,3-triazol-1-yl)pyridin-3-ol], the IC50 lay within 0.1 to 0.5 µM.

For `CN(c1ccc(-c2ncc(-c3cc(F)c4nn(C)cc4c3)cc2O)nn1)C1CC(C)(C)NC2(CC2)C1` (stereo not shown) [Compound 64, 2-{6-[(5,5-dimethyl-4-azaspiro[2.5]octan-7-yl)(methyl)amino]pyridazin-3-yl}-5-(7-fluoro-2-methyl-2H-indazol-5-yl)pyridin-3-ol], the IC50 was not above 0.1 µM.

`CC1(C)CC(Oc2ccc(-c3ncc(-c4ccc5nccn5n4)cc3O)nn2)CC(C)(C)N1` [Compound 65, 5-(imidazo[1,2-b]pyridazin-6-yl)-2-{6-[(2,2,6,6-tetramethylpiperidin-4-yl)oxy]pyridazin-3-yl}pyridin-3-ol] had an IC50 not above 0.1 µM.

The compound `C[C@@H]1CN(c2ccc(-c3ncc(-c4cc(F)c5nn(C)cc5c4)cc3O)nn2)C[C@H](C)N1` [Compound 69, 2-{6-[(3R,5S)-3,5-dimethylpiperazin-1-yl]pyridazin-3-yl}-5-(7-fluoro-2-methyl-2H-indazol-5-yl)pyridin-3-ol and 2-{6-[(3S,5R)-3,5-dimethylpiperazin-1-yl]pyridazin-3-yl}-5-(7-fluoro-2-methyl-2H-indazol-5-yl)pyridin-3-ol] displayed an IC50 not above 0.1 µM.

In turn, `CN[C@@H]1CCN(c2ccc(-c3ncc(-c4cc(OC)ncn4)cc3O)nn2)C1` [Compound 70, 5-(6-methoxypyrimidin-4-yl)-2-{6-[(3R)-3-(methylamino)pyrrolidin-1-yl]pyridazin-3-yl}pyridin-3-ol] displayed an IC50 not above 0.1 µM.

`Oc1cc(-n2nccn2)cnc1-c1ccc(OC2CC3(CC3)NC3(CC3)C2)nn1` (stereo not shown) [Compound 73, 2-{6-[(4-azadispiro[2.1.2^5.3^3]decan-9-yl)oxy]pyridazin-3-yl}-5-(2H-1,2,3-triazol-2-yl)pyridin-3-ol] showed a half-maximal inhibitory concentration (IC50) of 0.1 to 0.5 µM.

On to `COc1cc(-c2cnc(-c3ccc(OC4CC(C)(C)NC(C)(C)C4)nn3)c(O)c2)ncn1` [Compound 74, 5-(6-methoxypyrimidin-4-yl)-2-{6-[(2,2,6,6-tetramethylpiperidin-4-yl)oxy]pyridazin-3-yl}pyridin-3-ol], for which the half-inhibitory concentration (IC50) is not above 0.1 µM.

As for `[2H]C([2H])([2H])n1cc(-c2cnc(-c3ccc(OC4CC(C)(C)NC5(CC5)C4)nn3)c(O)c2)cn1` (stereo not shown) [Compound 75, 2-{6-[(5,5-dimethyl-4-azaspiro[2.5]octan-7-yl)oxy]pyridazin-3-yl}-5-[1-(^2H3)methyl-1H-pyrazol-4-yl]pyridin-3-ol], the IC50 was not above 0.1 µM.

Compound `Cc1ncc(-c2cnc(-c3ccc(N4CC[C@@H](NC(C)(C)C)C4)nn3)c(O)c2)o1` [Compound 76, 2-{6-[(3R)-3-(tert-butylamino)pyrrolidin-1-yl]pyridazin-3-yl}-5-(2-methyl-1,3-oxazol-5-yl)pyridin-3-ol] gave an IC50 not above 0.1 µM.

Compound `CN[C@@H]1CCN(c2ccc(-c3ncc(-c4cnc(C)o4)cc3O)nn2)C1` [Compound 77, 2-{6-[(3R)-3-(methylamino)pyrrolidin-1-yl]pyridazin-3-yl}-5-(2-methyl-1,3-oxazol-5-yl)pyridin-3-ol] showed an IC50 not above 0.1 µM.

For the compound `C[C@@H]1CN(c2ccc(-c3ncc(-c4cc(C#N)c5nn(C)cc5c4)cc3O)nn2)C[C@H](C)N1` [Compound 78, 5-(6-{6-[(3R,5S)-3,5-dimethylpiperazin-1-yl]pyridazin-3-yl}-5-hydroxypyridin-3-yl)-2-methyl-2H-indazole-7-carbonitrile and 5-(6-{6-[(3S,5R)-3,5-dimethylpiperazin-1-yl]pyridazin-3-yl}-5-hydroxypyridin-3-yl)-2-methyl-2H-indazole-7-carbonitrile], the IC50 is not above 0.1 µM.

These data come from US12577226B2, “Compounds for treating Huntington's disease” (PTC THERAPEUTICS, INC., priority 2019, dated 2026).
